Experiments:
[1] = molecular target: p38alpha (Homo sapiens (Human), UniProt Q16539); experiment: Cell-free kinase assay (ALPHA technology), p38alpha; assay type: biochemical; details: 10 μM ATP
Description: (§1) The inhibitory effect of the compounds according to the invention was tested on various serine/threonine, tyrosine and lipid kinases in enzymatic assays. Recombinant human kinases such as, for example, Erk2, PI3Kalpha, -beta, -gamma, -delta, p38alpha, p38gamma, Jnk1, Jnk2 and others were used in this case, partly as full-length kinases, partly as shortened fragments, but at least consisting of the functional kinase domains. The commercial kinase proteins (Proqinase, Upstate) were used as recombinant fusion proteins with GST (glutathion-S-transferase) or His-Tag. Depending on the type of substrate, the various kinase reactions were quantified by means of suitable ALPHA™ beads (Perkin-Elmer).
(§2) The substance testing is described in detail hereinafter for the Erk assay.
(§3) a) MAPK-ALPHAs (e.g. Erk2): the test substance, 0.625 ng Erk2 (#14-173, Upstate), 10 μM ATP and 15 nM biotinylated MBP (myelin basic protein) substrate were incubated on a 384-well Optiplate (Perkin-Elmer) in a volume of 15 μl for 1 h in 25 mM Tris, 10 mM MgCl2, 0.1% Tween-20, 100 μM NaVO4, 2 mM DTT at pH 7.5. The kinase reaction was then stopped by adding 10 μl of the ALPHA bead mixes (10 μg/ml, #6760617/Perkin-Elmer) pre-incubated with anti-phospho MBP antibody (320 pM, #05-429/Upstate) in 25 mM Tris, 200 mM NaCl, 110 nM EDTA and 0.3% BSA and left to stand overnight. b) PI3K-ALPHAs (e.g. PI3Kalpha): the test substance, 1 ng PI3Kalpha (#14-602, Upstate), 100 μM ATP and 20 μM PIP2 substrate (#P4508, Echelon) were incubated on a 384-well Optiplate (Perkin-Elmer) for 1 h in 50 mM Hepes, 50 mM NaCl, 5 mM MgCl2, 0.05% Chaps, 5 mM DTT at pH 7.4. The kinase reaction was then stopped by adding ALPHA bead mixes (10 μg/ml, #6760603/Perkin-Elmer) pre-incubated with 1 nM GST:Grp1 fusion protein (Upstate) and 15 nM biotinylated PIP3 (#C-39B6/Echelon) in 50 mM Hepes, 50 mM NaCl, 50 mM EDTA and 0.1% BSA and left to stand overnight.
(§4) The fluorescence was detected the following morning in a Fusion™^aα-system (Perkin-Elmer).
(§5) The %-inhibition values per substance concentration were calculated by means of the following formula from the raw data determined in the Fusion™ ? :
(§6) Eight determinations were made for each control and two for the substance samples. The 0% control either contains no ATP or no substrate, the 100% control (fully active kinase) contains no test substance. The IC50 values were determined using GraphPadPrism.

[2] = molecular target: Erk2 (Homo sapiens, UniProt P28482); experiment: Cell-free kinase assay (ALPHA technology), Erk2; assay type: biochemical; details: 10 μM ATP
Chain of Erk2 (P28482 2-360 limits assumed): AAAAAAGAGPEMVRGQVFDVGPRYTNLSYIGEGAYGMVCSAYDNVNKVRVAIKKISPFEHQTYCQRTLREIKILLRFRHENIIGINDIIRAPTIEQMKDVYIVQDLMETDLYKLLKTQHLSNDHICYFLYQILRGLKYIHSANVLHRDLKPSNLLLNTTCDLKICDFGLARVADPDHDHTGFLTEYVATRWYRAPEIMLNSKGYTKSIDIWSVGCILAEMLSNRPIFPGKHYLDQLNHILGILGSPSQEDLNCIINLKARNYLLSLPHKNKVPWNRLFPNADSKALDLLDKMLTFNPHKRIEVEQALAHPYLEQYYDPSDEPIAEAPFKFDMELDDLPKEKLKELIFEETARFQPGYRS
Description: The inhibitory effect of the compounds according to the invention was tested on various serine/threonine, tyrosine and lipid kinases in enzymatic assays. […] The commercial kinase proteins (Proqinase, Upstate) were used as recombinant fusion proteins with GST (glutathion-S-transferase) or His-Tag. Depending on the type of substrate, the various kinase reactions were quantified by means of suitable ALPHA™ beads (Perkin-Elmer). The substance testing is described in detail hereinafter for the Erk assay. […] a) MAPK-ALPHAs (e.g. […] The kinase reaction was then stopped by adding ALPHA bead mixes (10 μg/ml, #6760603/Perkin-Elmer) pre-incubated with 1 nM GST:Grp1 fusion protein (Upstate) and 15 nM biotinylated PIP3 (#C-39B6/Echelon) in 50 mM Hepes, 50 mM NaCl, 50 mM EDTA and 0.1% BSA and left to stand overnight. The fluorescence was detected the following morning in a Fusion™^aα-system (Perkin-Elmer). […] Eight determinations were made for each control and two for the substance samples. […] The IC50 values were determined using GraphPadPrism.

[3] = test system: Jnk1 + Jnk2; experiment: Cell-free kinase assay (ALPHA technology), Jnk1 + Jnk2; assay type: biochemical, human; details: 10 μM ATP
Description: as §1, §2, §3, §4, §5, §6

[4] = molecular target: PI3Kalpha (Homo sapiens (Human), UniProt P42336); experiment: Cell-free kinase assay (ALPHA technology), PI3Kalpha; assay type: biochemical; details: 100 μM ATP
Chain of PI3Kalpha (P42336 whole entry): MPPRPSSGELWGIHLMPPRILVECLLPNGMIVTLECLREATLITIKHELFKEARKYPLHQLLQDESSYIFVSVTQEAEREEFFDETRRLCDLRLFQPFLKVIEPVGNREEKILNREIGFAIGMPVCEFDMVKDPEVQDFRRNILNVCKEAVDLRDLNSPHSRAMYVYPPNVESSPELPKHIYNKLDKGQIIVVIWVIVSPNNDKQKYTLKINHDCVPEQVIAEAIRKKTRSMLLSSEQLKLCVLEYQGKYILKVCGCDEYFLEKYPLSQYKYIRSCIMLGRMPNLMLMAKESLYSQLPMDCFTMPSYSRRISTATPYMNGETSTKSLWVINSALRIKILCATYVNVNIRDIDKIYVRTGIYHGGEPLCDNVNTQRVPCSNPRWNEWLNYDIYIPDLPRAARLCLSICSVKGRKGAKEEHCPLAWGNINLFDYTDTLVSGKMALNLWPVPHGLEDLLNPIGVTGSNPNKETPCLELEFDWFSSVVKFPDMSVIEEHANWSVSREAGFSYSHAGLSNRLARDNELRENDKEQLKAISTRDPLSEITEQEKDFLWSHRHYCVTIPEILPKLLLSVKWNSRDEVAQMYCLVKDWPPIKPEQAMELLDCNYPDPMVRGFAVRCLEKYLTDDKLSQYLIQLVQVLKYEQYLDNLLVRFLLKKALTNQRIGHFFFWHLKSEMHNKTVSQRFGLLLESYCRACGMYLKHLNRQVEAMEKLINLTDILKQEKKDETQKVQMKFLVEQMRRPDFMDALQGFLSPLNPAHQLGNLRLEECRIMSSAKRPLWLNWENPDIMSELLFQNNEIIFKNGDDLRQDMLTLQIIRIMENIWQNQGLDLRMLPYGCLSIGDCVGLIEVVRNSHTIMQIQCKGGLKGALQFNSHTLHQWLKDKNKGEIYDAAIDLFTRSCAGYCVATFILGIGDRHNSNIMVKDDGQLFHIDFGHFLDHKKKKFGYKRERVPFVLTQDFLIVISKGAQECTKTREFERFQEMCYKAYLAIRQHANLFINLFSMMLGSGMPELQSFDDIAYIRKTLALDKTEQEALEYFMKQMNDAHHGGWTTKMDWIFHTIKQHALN
Chain of PI3Kalpha (P27986 whole entry partner): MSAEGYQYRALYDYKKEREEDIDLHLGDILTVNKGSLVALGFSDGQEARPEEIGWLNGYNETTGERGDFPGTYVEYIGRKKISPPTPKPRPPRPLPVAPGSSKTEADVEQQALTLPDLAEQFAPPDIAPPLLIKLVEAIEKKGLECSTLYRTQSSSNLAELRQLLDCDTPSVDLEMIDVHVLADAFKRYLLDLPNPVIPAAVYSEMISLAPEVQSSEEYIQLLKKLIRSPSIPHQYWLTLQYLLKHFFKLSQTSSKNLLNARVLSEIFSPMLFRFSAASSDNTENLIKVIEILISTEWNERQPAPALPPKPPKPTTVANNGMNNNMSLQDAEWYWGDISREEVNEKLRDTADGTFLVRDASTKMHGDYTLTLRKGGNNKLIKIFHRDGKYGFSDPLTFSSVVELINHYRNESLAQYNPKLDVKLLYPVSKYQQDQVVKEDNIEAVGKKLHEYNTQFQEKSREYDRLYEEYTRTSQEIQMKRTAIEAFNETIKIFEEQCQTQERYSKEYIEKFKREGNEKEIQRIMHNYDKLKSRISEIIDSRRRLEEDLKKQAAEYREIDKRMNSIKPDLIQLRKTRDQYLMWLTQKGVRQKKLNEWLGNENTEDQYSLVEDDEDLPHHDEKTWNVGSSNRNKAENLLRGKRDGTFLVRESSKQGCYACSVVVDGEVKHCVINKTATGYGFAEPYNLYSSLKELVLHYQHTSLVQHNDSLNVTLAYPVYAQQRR
Description: as §1, §2, §3, §4, §5, §6

[5] = test system: Hct116; experiment: XTT assay, anti-proliferative effect, Hct116; assay type: cell-based; details: 45 h incubation
Description: (§7) The principle of this test is based on the intracellular reduction of the tetrazolium dye XTT (sodium 3′-[1-(phenylaminocarbonyl)-3,4-tetrazolium]-bis(4-methoxy-6-nitro)benzene sulfonic acid, Sigma) to a formazan dye by mitochondrial dehydrogenases. The dye is only formed by metabolically active cells and its photometrically measurable intensity is a quantitative indicator for the presence of living cells. The reduction of dye formation by incubation of the cells with substances serves as a parameter for the anti-proliferative effect.
(§8) The tumour cell lines (ATCC) were injected into 96-well microtitre plates in a defined cell number (5000 cells/well for BxPC3 and Hct116; 10000 cells/well for MDA MB468) and then incubated overnight in an incubator at 37° C., 5% CO2 and 95% air humidity. The test substances were prepared as stock solutions (10 mM) in DMSO. […] The cell plates were then incubated for 45 h in an incubator at 37° C., 5% CO2 and 95% air humidity.
(§9) For the detection reaction the substrate XTT was mixed with PMS (N-Methyl dibenzopyrazine methylsulfate, Sigma) and added to the cells so that a final concentration of 325 μg XTT/ml and 2.5 μg PMS/ml was obtained. It was then incubated for 3 h at 37° C., 95% air humidity. The formazan salt formed by the cellular dehydrogenases could then be quantified by adsorption at 490 nm.
(§10) The % inhibition value was evaluated by means of the following formula from the values for the optical densities measured in each case at 490 nm:
(§11) Eight determinations were made for each control and two for the substance samples. The 0% control contains no cells, the 100% control (proliferation control) contains no test substance. The EC50 values were determined using GraphPadPrism.

[6] = test system: MDA-MB468; experiment: XTT assay, anti-proliferative effect, MDA-MB468; assay type: cell-based; details: 45 h incubation
Description: as §7, §8, §9, §10, §11

Chain of p38alpha (Q16539 whole entry, the tested form may be a part): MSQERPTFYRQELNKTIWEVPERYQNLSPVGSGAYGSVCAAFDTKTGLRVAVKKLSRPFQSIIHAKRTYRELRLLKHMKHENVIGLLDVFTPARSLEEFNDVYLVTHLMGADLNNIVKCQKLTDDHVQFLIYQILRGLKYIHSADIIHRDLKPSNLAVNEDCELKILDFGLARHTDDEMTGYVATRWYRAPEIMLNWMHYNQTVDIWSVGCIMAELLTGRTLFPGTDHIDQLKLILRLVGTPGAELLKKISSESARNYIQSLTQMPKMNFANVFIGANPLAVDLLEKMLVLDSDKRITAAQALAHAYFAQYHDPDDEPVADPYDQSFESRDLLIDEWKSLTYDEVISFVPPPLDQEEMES

SMILES: C=CCNC(=O)Nc1ccc2ncc(-c3ccc(O)cc3)nc2n1 [Compound 25, 1-allyl-3-[3-(4-hydroxy-phenyl)-pyrido[2,3-b]pyrazin-6-yl]-urea]
- IC50 [1]: > 100 µM
- melting point: 240 °C (dec.)
- IC50 [2]: 0.076 µM
- IC50 [3]: > 31.6 µM
- IC50 [4]: 1.5 µM

SMILES: C=CCNC(=S)Nc1ccc2ncc(-c3ccccc3)nc2n1 [Compound 1, 1-Allyl-3-(3-phenyl-pyrido[2,3-b]pyrazin-6-yl)-thiourea]
- IC50 [1]: > 31.6 µM
- melting point: 239 to 240 °C (dec.)
- IC50 [3]: > 31.6 µM
- IC50 [4]: 0.9 µM

SMILES: CCNC(=O)Nc1ccc2ncc(-c3ccc(O)c(OC)c3)nc2n1 [Compound 193]
- IC50 [1]: > 100 µM
- IC50 [2]: 0.212 µM
- EC50 [5]: 2.1 µM
- IC50 [3]: 1.5 µM
- EC50 [6]: 4.4 µM
- IC50 [4]: 2.2 µM

SMILES: COc1cc(-c2cnc3ccc(NC(=O)NCCCCN4CCOCC4)nc3n2)ccc1O [Compound 176, 1-[3-(4-Hydroxy-3-methoxy-phenyl)-pyrido[2,3-b]pyrazin-6-yl]-3-(4-morpholin-4-yl-butyl)-urea]
- EC50 ([5]; Homo sapiens, HCT-116): 11.8 µM
- EC50 ([6]; Homo sapiens, MDA-MB-468): 17 µM

SMILES: COc1ccc(-c2cnc3ccc(NC(=S)Nc4ccc([N+](=O)[O-])cc4)nc3n2)cc1 [Compound 9, 1-[3-(4-methoxy-phenyl)-pyrido[2,3-b]pyrazin-6-yl]-3-(4-nitro-phenyl)-thiourea]
- melting point: 250 to 251 °C (dec.)

SMILES: CCNC(=O)Nc1ccc2ncc(Nc3cc(C)cc(C)c3)nc2n1 [Compound 191, 1-[3-(3,5-Dimethyl-phenylamino)-pyrido[2,3-b]pyrazin-6-yl]-3-ethyl-urea]
- EC50 ([5]; Homo sapiens, HCT-116): 5.5 µM
- EC50 ([6]; Homo sapiens, MDA-MB-468): 8.5 µM

SMILES: CC(C)(C)NC(=S)Nc1ccc2ncc(-c3ccccc3)nc2n1 [Compound 10, 1-tert.butyl-3-(3-phenyl-pyrido[2,3-b]pyrazin-6-yl)-thiourea]
- melting point: 227 °C (dec.)

SMILES: C=CCNC(=S)Nc1ccc2ncc(-c3ccc4ccccc4c3)nc2n1 [Compound 5, 1-allyl-3-(3-naphth-2-yl-pyrido[2,3-b]pyrazin-6-yl)-thiourea]
- melting point: 242 to 243 °C (dec.)

SMILES: O=[N+]([O-])c1ccc(NC(=S)Nc2ccc3ncc(-c4ccc5ccccc5c4)nc3n2)cc1 [Compound 8, 1-(3-naphth-2-yl-pyrido[2,3-b]pyrazin-6-yl)-3-(4-nitro-phenyl)-thiourea]
- melting point: 260 to 261 °C (dec.)

SMILES: CNC(=S)Nc1ccc2ncc(-c3ccc([N+](=O)[O-])cc3)nc2n1 [Compound 22, 1-methyl-3-[3-(4-nitro-phenyl)-pyrido[2,3-b]pyrazin-6-yl]-thiourea]
- melting point: 270 °C

SMILES: S=C(NCc1ccccc1)Nc1ccc2ncc(-c3ccccc3)nc2n1 [Compound 13, 1-benzyl-3-(3-phenyl-pyrido[2,3-b]pyrazin-6-yl)-thiourea]
- melting point: 232 to 233 °C

SMILES: Cc1ccc(NC(=O)Nc2ccc3ncc(-c4ccccc4)nc3n2)cc1 [Compound 15, 1-(3-phenyl-pyrido[2,3-b]pyrazin-6-yl)-3-p-tolyl-urea]
- melting point: 298 to 299 °C

SMILES: S=C(NCc1ccco1)Nc1ccc2ncc(-c3ccccc3)nc2n1 [Compound 20, 1-furan-2-ylmethyl-3-(3-phenyl-pyrido[2,3-b]pyrazin-6-yl)-thiourea]
- melting point: 250 °C (dec.)

SMILES: O=C(NCCN1CCOCC1)Nc1ccc2ncc(-c3ccccc3)nc2n1 [Compound 17, 1-(2-Morpholin-4-yl-ethyl)-3-(3-phenyl-pyrido[2,3-b]pyrazin-6-yl)-urea]
- melting point: 226 °C

SMILES: C=CCNC(=S)Nc1ccc2nc(-c3ccc(O)cc3)c(-c3ccc(O)cc3)nc2n1 [Compound 32, 1-allyl-3-[2,3-bis-(4-hydroxy-phenyl)-pyrido[2,3-b]pyrazin-6-yl]-thiourea]
- melting point: 270 °C (dec.)

SMILES: C=CCNC(=S)Nc1ccc2ncc(-c3cccc(O)c3)nc2n1 [Compound 27, 1-allyl-3-[3-(3-hydroxy-phenyl)-pyrido[2,3-b]pyrazin-6-yl]-thiourea]
- melting point: 205 °C (dec.)

SMILES: C=C(C)CNC(=S)Nc1ccc2ncc(-c3ccccc3)nc2n1 [Compound 4, 1-(2-methyl-allyl)-3-(3-phenyl-pyrido[2,3-b]pyrazin-6-yl)-thiourea]
- melting point: 225 to 226 °C (dec.)

SMILES: CCNC(=O)Nc1ccc2ncc(-c3ccc(OP(=O)(O)O)c(OC)c3)nc2n1 [Compound 169, Phosphoric acid-mono-{4-[6-(3-ethyl-ureido)-pyrido-[2,3-b]pyrazin-3-yl]-2-methoxy-phenyl}-ester]
- IC50 [1]: > 100 µM
- IC50 [2]: 2.7 µM
- EC50 ([5]; Homo sapiens, HCT-116): 2.8 µM
- IC50 [3]: 9.5 µM
- EC50 ([6]; Homo sapiens, MDA-MB-468): 5.7 µM
- IC50 [4]: 3.7 µM

SMILES: C=C(C)CNC(=S)Nc1ccc2ncc(-c3ccc(OC)cc3)nc2n1 [Compound 3, 1-[3-(4-methoxy-phenyl)-pyrido[2,3-b]pyrazin-6-yl]-3-(2-methyl-allyl)-thiourea]
- melting point: 251 to 252 °C (dec.)

SMILES: CCNC(=O)Nc1ccc2ncc(-c3cc(Cl)c(O)c(OC)c3)nc2n1 [Compound 175]
- IC50 [1]: > 100 µM
- IC50 [2]: 0.191 µM
- EC50 [5]: 4.4 µM
- IC50 [3]: 2.5 µM
- EC50 [6]: > 50 µM
- IC50 [4]: 0.458 µM

SMILES: O=C(Nc1ccc2ncc(-c3ccccc3)nc2n1)NC1CC1 [Compound 21, 1-cyclopropyl-3-(3-phenyl-pyrido[2,3-b]pyrazin-6-yl)-urea]
- melting point: 158 to 160 °C

SMILES: O=C(Nc1ccc(Cl)c(C(F)(F)F)c1)Nc1ccc2ncc(-c3ccccc3)nc2n1 [Compound 16, 1-(4-chloro-3-trifluoromethyl-phenyl)-3-(3-phenyl-pyrido[2,3-b]pyrazin-6-yl)-urea]
- melting point: 250 °C

SMILES: C=CCNC(=S)Nc1cnc2nc(-c3ccc([N+](=O)[O-])cc3)cnc2c1 [Compound 137, 1-Allyl-3-[3-(4-nitro-phenyl)-pyrido[2,3-b]pyrazin-7-yl]-thiourea]
- melting point: 250 °C (dec.)

SMILES: C=CCNC(=S)Nc1ccc2ncc(-c3ccc(O)cc3)nc2n1.Cl
- melting point: 160 to 161 °C (dec.)
